According to US20030086920A1, “Use of des-Aspartate-angiotensin I as an agent for the treatment and prevention of glomerulosclerosis and renal failure” (priority 2000, published 2003):

Key:
cardiac hypertrophy = conditions: rat of average weight of 328 g, from the original parent patent; cited from earlier work
[1] = test system: ablation nephropathic rats; test: Proteinuria in 5/6 nephrectomized (ablation nephropathic) rats; format: in vivo, Sprague Dawley rats; conditions: for 24-hour urinary excretion of protein: Weeks 9-16 post 5/6 nephrectomy, 762 nmoles/kg/day oral for 8 weeks, mean ± SEM
Protocol: Five-sixths nephrectomy was carried out as described by Morrison (11). Briefly, each animal was anaesthetized with 7% w/v chloral hydrate (0.4 g/kg, i.p.). An incision was made in the ventral abdominal wall to access the kidneys. Right nephrectomy was performed and the cranial and caudal third of the left kidney were cut off. Tissue adhesive (Histoccryl, B. Braun) was used to seal the cut ends of the left kidney and prevent bleeding. In this way 5/6 of the renal parenchyma was removed. This model results in focal and segmental glomerulosclerosis, resembling renal lesions in humans like oligomeganephronia, membranous nephropathy, minimal change nephritis, proliferative glomerulonephritis, analgesic nephropathy, diabetes mellitus, unilateral nephrectomy, cortical necrosis, and unilateral renal agenesis (9).
Following the operation, each animal was placed in a metabolic cage for 24 hours once a week for a duration of 8 weeks. The 24-hour urine output and the concentration of protein in the urine were measured. After the 8th week, the animals were randomly divided into two groups (8 animals per group). Animals in one of the group (the treatment group) were orally administered 762 nmoles/kg/day of des-Asp-angiotensin I dissolved in 0.5 ml of saline via a 1-ml syringe with a blunted needle for a period of 8 weeks. The dose of 762 nmoles/kg/day was calculated based on the maximum effective oral anti-cardiac hypertrophic dose (250 nmole per rat of average weight of 328 g) in the original parent patent. Animals in the other group (the control group) were similarly administered with 0.5 ml of saline. Weekly measurement of 24-hour urine output and the concentration of protein in the urine in these animals were carried out for another 8 weeks. The protocol was designed based on our preliminary observation that urinary excretion of protein in the 5/6 nephrectomized rats commenced to increase above the normal value in 7th to 8th week post nephrectomy. A repeat of the experiment with 12 nephrectomized rats per group was carried out.
Data were expressed as mean±SEM. […]

## des-Aspartate angiotensin I [des-Asp-angiotensin I]
Cardiac hypertrophy
  Maximum effective oral anti-cardiac hypertrophic dose: 250 nmole per rat
[1]; 8 rats, first experiment, saline control 37.2 ± 2.3, p = 0.024
  24-hour urinary excretion of protein: *28.7 ± 2.5 mg
[1]; 12 rats, repeat experiment, saline control 51.7 ± 4.7, p = 0.048
  24-hour urinary excretion of protein: *39.6 ± 3.3 mg
[1]; ablation nephropathic rats, oral dose of 762 nmoles/kg/day
  Anti-proteinuric action (progressive development of proteinuria): effective agent in attenuating the progressive development of proteinuria
